According to patent US20120178085A1, “METHOD FOR EVALUATION OF CULTURED CELLS, AND METHOD FOR SCREENING OF BIOMARKER” (priority 2009, published 2012):

Test system: Human liver cancer-derived cell line (HuH-7)
Experiment: miRNA released into serum-free culture medium from HuH-7 cells treated with carbon tetrachloride (real-time PCR)
Assay type: cell-based
Settings: carbon tetrachloride 0-1000 μM, 7-day culture in serum-free maintenance medium, FIG. 2
Protocol: Human liver cancer-derived cell line (HuH-7, purchased from ATCC) was seeded in a culture vessel of 12-well culture plate at a cell density of 20000 cells/cm^2, and cells were cultured for 7 days in a serum-free maintenance medium containing carbon tetrachloride, which was known to injure liver tissue and liver cells, at a relatively low concentration of 0-1000 μM used in World J Gastroenterol. 2008 Jun. 21; 14(23):3693-709. The maintenance medium used herein was the same as one used in Example 1.
Each culture medium was collected after 7-day culturing, and cells were removed by filtration through a 0.22 μm filter to obtain samples.
cDNA samples of Poly(A)miRNA samples were obtained in the same manner as in Example 1.
Real-time PCR was carried out using Platinum SYBR Green (produced by Invitrogen) to measure hsa-miR-21, hsa-miR-122, hsa-miR-451 and hsa-miR-16 contained in the cDNA samples. The primers used were as follows.

ClC(Cl)(Cl)Cl [carbon tetrachloride]
amount of miRNA released from cells into culture medium (hsa-miR-21, hsa-miR-122, hsa-miR-451, hsa-miR-16): increased
